Target: T1, tubulin
T1 construct: purified tubulin (alpha/beta heterodimer)
Test: tryptophan fluorescence quenching titration; competition with BODIPY FL-vinblastine (Ki […])
Format: binding

Which Kd does the source give for `O=C1NC(=S)S/C1=C\c1ccc(-c2ccc(Br)c(Cl)c2)o1` [BCFMT, (Z)-5-((5-(4-bromo-3-chlorophenyl)furan-2-yl)methylene)-2-thioxothiazolidin-4-one] here?
Its Kd is 8.3 ± 1.8 µM.
